# Laboratory results published in patent publication US4996225A, “Tri-phenyl alkane derivatives and their oestrogenic, anti-oestrogenic and progestanic uses” (Farmos Group Ltd., priority 1982, dated 1991).
# Entries after “also recorded” stand apart in the source; their conditions may differ.
# Experiments:
# oestrogen receptors = biological target: T1, oestrogen receptors (Rattus norvegicus, UniProt P06211); assay: affinity for oestrogen receptors, competition with 3H-17-β-estradiol in rat uterus cytosol (dextran-charcoal method); assay type: binding; settings: read-out: Estrogen receptor affinity (concentration of compound where 50% competition (inhibition) with 3H-estradiol occurred)
# T1 construct: rat uterus cytosol preparation; from tissue; host or cells: rat uterus cytosol
# T1 sequence (P06211 1-600): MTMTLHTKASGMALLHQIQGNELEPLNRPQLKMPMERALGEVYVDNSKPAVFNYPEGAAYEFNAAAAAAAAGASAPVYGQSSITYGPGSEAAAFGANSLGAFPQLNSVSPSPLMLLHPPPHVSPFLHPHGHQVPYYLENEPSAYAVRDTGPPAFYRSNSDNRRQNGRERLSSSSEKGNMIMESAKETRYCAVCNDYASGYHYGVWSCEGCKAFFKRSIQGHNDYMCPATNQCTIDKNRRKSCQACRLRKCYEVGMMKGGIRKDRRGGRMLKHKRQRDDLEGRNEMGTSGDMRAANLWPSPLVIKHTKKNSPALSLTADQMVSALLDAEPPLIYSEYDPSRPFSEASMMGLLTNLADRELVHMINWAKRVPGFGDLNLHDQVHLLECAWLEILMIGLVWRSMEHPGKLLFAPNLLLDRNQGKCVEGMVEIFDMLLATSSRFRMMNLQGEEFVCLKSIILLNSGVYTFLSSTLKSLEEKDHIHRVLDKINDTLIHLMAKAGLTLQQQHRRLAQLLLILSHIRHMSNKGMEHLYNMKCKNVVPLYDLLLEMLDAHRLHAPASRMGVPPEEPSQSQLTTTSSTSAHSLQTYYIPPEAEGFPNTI
# Protocol: The affinity of the new compounds for oestrogen receptors was determined by the ability to compete with ^3 H-labelled 17-β-estradiol in rat uterus cytosol preparation. After incubation, receptor-bound and receptor-unbound ligands were separated by a known dextrancharcoal method.
# immature mouse uterus [1] = assay: oestrogenic effect, uterus weight of immature mice; assay type: in vivo; settings: for estrogenic effect: less than that of estradiol 0.05 mg/kg: 5 mg/kg; for estrogenic effect (in words): immature mice, s.c., three days
# Protocol: (§1) The oestrogen-antiestrogen (progesterone) effect of the new compounds in vivo was determined as follows: (1) The oestrogenic properties were determined by administering the new compounds, suspended in sesame oil, subcutaneously to 21 days old immature mice on three consecutive days. The mice were killed on the fourth day and the uterus was weighed. […] The weight correlates with the oestrogenic effect of the compound tested. […] In this case, the ability of the molecules to inhibit oestrogen-induced uterus weight increase was also investigated.
# [2] = tested on: estradiol induced weight increase in immature mouse uterus; assay: antiestrogenic effect, inhibition of oestrogen-induced uterus weight increase in immature mice; assay type: in vivo; settings: for effect with estradiol (in words) / reduction in the weights of mice uterus, with estradiol: with estradiol 0.05 mg/kg; for anti-estrogenic effect (in words): immature mouse uterus
# Protocol: as §1
# immature mouse uterus [3] = assay: progestanic effect, uterus weight of immature mice (alone or with medroxyprogesterone acetate); assay type: in vivo; parameters: reduction in the weight of a mouse uterus, given alone / reduction in the weight of uterus with medroxyprogesterone / reduction in the weights of mice uterus, given alone: concentration or dose not given beside the values; settings: for progestanic effect (in words): immature mouse uterus; for effect with medroxyprogesterone (in words) / reduction in the weights of mice uterus with medroxyprogesterone, compared to control: with medroxyprogesterone 0.06 mg/kg
# [4] = tested on: MCF-7 cell line (human mammary adenocarcinoma); assay: anti-tumour effect in vitro, growth of MCF-7 cell line (bioluminescence assay, intracellular ATP); assay type: cell-based; settings: read-out: Antitumour effect against MCF-7 cell line (IC50 = concentration of compound where 50% inhibition of cell growth could be seen)
# Protocol: The anti-tumour effect was studied in vitro as follows:
# The amount of living cells after 4 h, 24 h and 48 h incubations were determined by bioluminescence assay (intracellular ATP determination).
# inhibition of cell growth could be seen.
# [5] = tested on: DMBA-induced rat mammary adenocarcinomas; assay: antitumour effect in vivo against DMBA-induced rat mammary adenocarcinoma; settings: for antitumour effect against DMBA-induced mammary cancer (in words): compared with compound 7; for growth / size of tumour (width×height): 30 mg/kg
# Protocol: (§2) The anti-tumour effect was investigated in vivo against DMBA-induced rat mammary adenocarcinomas, transplantable mammary and ovarial adenocarcinoma and transplantable prostatic squamous cell carcinoma by the following methods:
# Mammary adenocarcinomas were induced by DMBA in 35-40 days old female rats. […] Tumour size and numbers of tumours were evaluated twice a week. Tumour sizes in the control group, treated with solvent, were compared with the test groups.
# The size refers to the width×height of the tumour. The growth rate is a difference between sizes compared with that of the first day of the treatment.
# rat prostatic carcinoma = assay: antitumour effect against transplantable prostatic carcinoma; assay type: in vivo; settings: 1 mg/kg, 12 days' treatment
# Source text: The anti-tumour effect was investigated in vivo against DMBA-induced rat mammary adenocarcinomas, transplantable mammary and ovarial adenocarcinoma and transplantable prostatic squamous cell carcinoma by the following methods: The activity of the molecules against other tumours was studied by administering the molecules by stomach tube to animals implanted with transplantable uterus sarcoma (mice) or prostatic adenocarcinoma (rats). Daily or twice weekly administration schedules were employed. NMRI mice (about 20 g, females) and Fischer 344 rats (about 200 g, males) were used. Estramustine phosphate served as positive control. Transplantable rat mammary adenocarcinoma was developed by inoculating pieces of DMBA-induced carcinomas subcutaneously to healthy mature female rats. A tumour which expressed malignant growth was selected for further transplantations. Other transplantable tumours were inoculated subcutaneously as washed cell suspension (10^7 cells/animal).
# rat ovarial carcinoma = assay: antitumour effect against transplantable rat ovarial carcinoma; assay type: in vivo; settings: 5 mg/kg, ten days' treatment
# Source text: as §2
# (§3) Transplantable rat mammary adenocarcinoma was developed by inoculating pieces of DMBA-induced carcinomas subcutaneously to healthy mature female rats. A tumour which expressed malignant growth was selected for further transplantations. Other transplantable tumours were inoculated subcutaneously as washed cell suspension (10^7 cells/animal).
# mouse uterus sarcoma = assay: antitumour effect against transplantable mouse uterus sarcoma; assay type: in vivo; settings: 100 mg/kg, two weeks' treatment
# Source text: The activity of the molecules against other tumours was studied by administering the molecules by stomach tube to animals implanted with transplantable uterus sarcoma (mice) or prostatic adenocarcinoma (rats).
# Daily or twice weekly administration schedules were employed. NMRI mice (about 20 g, females) and Fischer 344 rats (about 200 g, males) were used. Estramustine phosphate served as positive control.
# as §3
structure (smiles),measurement,setting,value
"Oc1ccc([C@@]2(c3ccccc3)OCC[C@@H]2c2ccccc2)cc1 (relative stereo) [Compound 2, 2,3-diphenyl-2-(4-hydroxyphenyl)tetrahydrofuran]",IC50,oestrogen receptors,100 to 1000 nM
same,estrogenic effect of their own (in words),immature mouse uterus [1]; up to 5 mg/kg,no estrogenic effect of their own; also recorded: no antiestrogenic or estrogenic effect of its own
same,antiestrogenic effect of its own (in words),[2]; up to 5 mg/kg,no antiestrogenic or estrogenic effect of its own
same,effect with estradiol (in words),[2],no synergism
same,decrease of weight of mouse uterus,immature mouse uterus [3]; 0.05 mg/kg,50%
same,effect given alone: progestanic (in words),immature mouse uterus [3]; given alone,progestanic
same,"reduction in the weights of mice uterus, given alone","immature mouse uterus [3]; given alone, Table 2A",50%
same,progestanic effect (in words),immature mouse uterus [3],could purely be considered to be due to its progestanic effect
same,interaction with medroxyprogesterone (in words),immature mouse uterus [3],synergistic effect with medroxyprogesterone
same,effect with medroxyprogesterone (in words),immature mouse uterus [3],synergistic
same,"reduction in the weights of mice uterus with medroxyprogesterone, compared to control",immature mouse uterus [3],53%
same,IC50,[4],5000 to 10000 nM
same,antitumour effect against DMBA-induced mammary cancer (in words),[5],Antitumour effect less than that of compound 7
same,size of prostatic tumour smaller than that of control,rat prostatic carcinoma,29%
"CN(C)CCOc1ccc(/C(=C(/CCCl)c2ccccc2)c2ccccc2)cc1 [Compound 7, 4-chloro-1,2-diphenyl-1-[4-[2-(N,N-dimethylamino)ethoxy]phenyl]-1-butene]",estrogenic effect: less than that of estradiol 0.05 mg/kg,immature mouse uterus [1],about 50%
same,effect given alone: estrogenic (in words),immature mouse uterus [1]; given alone,estrogenic
same,estrogenic effect (in words),immature mouse uterus [1],could be seen only at the higher concentrations investigated; also recorded: possessing antiestrogenic and estrogenic properties
same,inhibition of estradiol induced effect in mouse uterus,[2]; 0.5 mg/kg,27%
same,anti-estrogenic effect (in words),[2],possessed anti-estrogenic effects; also recorded: possessing antiestrogenic and estrogenic properties
same,effect with estradiol (in words),[2],anti-
same,"reduction in the weights of mice uterus, with estradiol",[2],27%
same,effect given alone: progestanic (in words),immature mouse uterus [3]; given alone,progestanic
same,progestanic effect (in words),immature mouse uterus [3],found to be progestanic
same,interaction with medroxyprogesterone (in words),immature mouse uterus [3],slight inhibition of medroxyprogesterone at the lowest dose studied
same,effect with medroxyprogesterone (in words),immature mouse uterus [3],weak
same,"reduction in the weights of mice uterus with medroxyprogesterone, compared to control",immature mouse uterus [3],14%
same,IC50,[4],1000 to 5000 nM
same,growth,[5]; day 1 of treatment,0
same,size of tumour (width×height),[5]; day 1 of treatment,1.5188
same,growth,[5]; day 3 of treatment,0.1551
same,size of tumour (width×height),[5]; day 3 of treatment,1.6739
same,growth,[5]; day 7 of treatment,-0.2118
same,size of tumour (width×height),[5]; day 7 of treatment,1.3070
same,growth,[5]; day 9 of treatment,-0.4714
same,size of tumour (width×height),[5]; day 9 of treatment,1.0474
same,growth,[5]; day 14 of treatment,-0.5392
same,size of tumour (width×height),[5]; day 14 of treatment,0.1179
same,growth,[5]; day 17 of treatment,-0.5752
same,size of tumour (width×height),[5]; day 17 of treatment,0.0820
same,growth,[5]; day 21 of treatment,-0.5851
same,size of tumour (width×height),[5]; day 21 of treatment,0.0721
same,growth,[5]; day 25 of treatment,-0.5682
same,size of tumour (width×height),[5]; day 25 of treatment,0.0891
same,growth,[5]; day 28 of treatment,-0.5640
same,size of tumour (width×height),[5]; day 28 of treatment,0.09316
same,growth,[5]; day 35 of treatment,-0.5379
same,size of tumour (width×height),[5]; day 35 of treatment,0.1193
same,growth of the tumours (in words),[5]; highest dose used (30 mg/kg),the growth of the tumours was found to stop
same,dose range at which antitumour effect was found,"[5]; rat, in vivo",1.0 to 30 mg/kg
same,size of rat ovarial carcinoma smaller compared with control,rat ovarial carcinoma,20%
same,size of uterus sarcoma smaller than that of control,mouse uterus sarcoma,30%
"CN(C)CCOc1ccc(/C(=C(/CCBr)c2ccccc2)c2ccccc2)cc1 [Compound 13, 4-bromo-1,2-diphenyl-1-[4-[2-(N,N-dimethylamino)ethoxy]phenyl]-1-butene]",IC50,oestrogen receptors,100 to 1000 nM
same,estrogenic effect: less than that of estradiol 0.05 mg/kg,immature mouse uterus [1],about 50%
same,effect given alone: estrogenic (in words),immature mouse uterus [1]; given alone,estrogenic
same,"increase in the weights of mice uterus, given alone",immature mouse uterus [1]; given alone,50%
same,estrogenic effect (in words),immature mouse uterus [1],could be seen only at the higher concentrations investigated
same,inhibition of estradiol induced effect in mouse uterus,[2]; 5 mg/kg,25%
same,anti-estrogenic effect (in words),[2],possessed anti-estrogenic effects
same,effect with estradiol (in words),[2],anti-
same,"reduction in the weights of mice uterus, with estradiol",[2],25%
same,effect with medroxyprogesterone (in words),immature mouse uterus [3],weak
same,"reduction in the weights of mice uterus with medroxyprogesterone, compared to control",immature mouse uterus [3],14%
same,IC50,[4],1000 to 5000 nM
same,antitumour effect against DMBA-induced mammary cancer (in words),[5],Antitumour effect less than that of compound 7
